Assays:
[1] = biological target: cMET (Homo sapiens, UniProt P08581); experiment: Inhibitory activity against MET (cMET), TR-FRET kinase assay; format: biochemical; conditions: cMET enzyme
Protocol: In addition, in order to measure the enzyme activity inhibition for cMET, the evaluation was performed in the same manner as the enzyme activity inhibition measurement experiment for the RON.
(§1) Specifically, the compound was prepared to a concentration of 1 mM with 100% DMSO and was diluted 10 times in a stepwise manner through 3-fold dilution. 2 ul of the compound diluted in a stepwise manner was added to a 96-well-plate containing 48 ul of a 1× kinase reaction buffer (50 mM HEPES (pH 7.4), 0.05% BSA, 0.005% Tween-20, 1 mM DTT, 0.5 mM MnCl2, 20 mM MgCl2).
The cMET protein was diluted to a concentration of 263 nM with a cMET storage buffer (50 mM Tris-HCl (pH 7.5), 150 mM NaCl, 0.05% Brij35, 1 mM DTT, 10% Glycerol), and then diluted again to a concentration of 2 nM with a 1× kinase reaction buffer. As a substrate cocktail, a MET-specific substrate mixture (5 uM TK peptide, […]) at a concentration 2 times the final reaction concentration.
Thereafter, a 384-well-plate was prepared, and 2.5 μl of each of the diluted compounds of Examples was added to a corresponding well of experimental group wells, and 2.5 μl of a 4% DMSO solution was dispensed into high control wells and low control wells.
(§2) Thereafter, 2.5 μL of 2 nM cMET was dispensed into the high control wells and the experimental group wells, and 2.5 μL of a 1× kinase reaction buffer was added to the low control wells, and the […] and the reaction buffer were centrifuged at room temperature for 40 seconds at 1000 RPM, and then incubated at room temperature for 20 to 30 minutes. Then, 5 μL of a substrate cocktail (2×) was dispensed into all wells, centrifuged at room temperature for 40 seconds at 1000 RPM, and then incubated at room temperature for 60 minutes. Thereafter, 5 μL of 90 mM EDTA was added to all wells to terminate the reaction, and then incubated again at room temperature for 5 minutes. Thereafter, 5 μL of a 4× phosphotyrosine antibody (Perkin Elmer) containing europium was added to all wells, and then incubated at room temperature for 60 minutes. After the incubation, the 384-well-plate was read with a Vison plate reader. At this time, the excitation wavelength was 340 nm, and the emission wavelength was 620 nm and 665 nm. The IC50 value of the compound of each Example was derived using the GraphPd Prism7 program.

[2] = biological target: RON (Homo sapiens, UniProt Q04912); experiment: Inhibitory activity against RON, TR-FRET kinase assay; format: biochemical; conditions: RON enzyme
Protocol: In order to measure the inhibitory activity of each of the compounds of Examples against RON, the IC50 of each of the compounds was measured using a Time-Resolved Fluorescence Energy Transfer Chemistry (TR-FRET).
as §1, with “7.4), 0.01%” for “7.4), 0.05% BSA, 0.005%”, “Tween-20, 5” for “Tween-20, 1”, “mM Na3VO4, 2 mM EGTA, 10” for “mM MnCl2, 20”
The RON protein was diluted to a concentration of 49.3 nM with an RON storage buffer (50 mM Tris-HCl (pH 7.5), 150 mM NaCl, 0.5 mM EDTA, 0.02% Triton X-100), and then diluted again to a concentration of 0.4 nM with a 1× kinase reaction buffer. As a substrate cocktail, a RON-specific substrate mixture (40 uM ULight-labeled Poly GT, 100 nM ATP) at a concentration 2 times the final reaction concentration.
Thereafter, a 384-well-plate was prepared, and 2.5 ul of each of the diluted compounds of Examples was added to a corresponding well of experimental group wells, and 2.5 ul of a 4% DMSO solution was dispensed into high control wells and low control wells.
as §2, with “of 0.4” for “of 2”, “nM RON” for “nM cMET”, “of 30” for “of 90”

Sequence of RON (Q04912 25-1400, species assumed): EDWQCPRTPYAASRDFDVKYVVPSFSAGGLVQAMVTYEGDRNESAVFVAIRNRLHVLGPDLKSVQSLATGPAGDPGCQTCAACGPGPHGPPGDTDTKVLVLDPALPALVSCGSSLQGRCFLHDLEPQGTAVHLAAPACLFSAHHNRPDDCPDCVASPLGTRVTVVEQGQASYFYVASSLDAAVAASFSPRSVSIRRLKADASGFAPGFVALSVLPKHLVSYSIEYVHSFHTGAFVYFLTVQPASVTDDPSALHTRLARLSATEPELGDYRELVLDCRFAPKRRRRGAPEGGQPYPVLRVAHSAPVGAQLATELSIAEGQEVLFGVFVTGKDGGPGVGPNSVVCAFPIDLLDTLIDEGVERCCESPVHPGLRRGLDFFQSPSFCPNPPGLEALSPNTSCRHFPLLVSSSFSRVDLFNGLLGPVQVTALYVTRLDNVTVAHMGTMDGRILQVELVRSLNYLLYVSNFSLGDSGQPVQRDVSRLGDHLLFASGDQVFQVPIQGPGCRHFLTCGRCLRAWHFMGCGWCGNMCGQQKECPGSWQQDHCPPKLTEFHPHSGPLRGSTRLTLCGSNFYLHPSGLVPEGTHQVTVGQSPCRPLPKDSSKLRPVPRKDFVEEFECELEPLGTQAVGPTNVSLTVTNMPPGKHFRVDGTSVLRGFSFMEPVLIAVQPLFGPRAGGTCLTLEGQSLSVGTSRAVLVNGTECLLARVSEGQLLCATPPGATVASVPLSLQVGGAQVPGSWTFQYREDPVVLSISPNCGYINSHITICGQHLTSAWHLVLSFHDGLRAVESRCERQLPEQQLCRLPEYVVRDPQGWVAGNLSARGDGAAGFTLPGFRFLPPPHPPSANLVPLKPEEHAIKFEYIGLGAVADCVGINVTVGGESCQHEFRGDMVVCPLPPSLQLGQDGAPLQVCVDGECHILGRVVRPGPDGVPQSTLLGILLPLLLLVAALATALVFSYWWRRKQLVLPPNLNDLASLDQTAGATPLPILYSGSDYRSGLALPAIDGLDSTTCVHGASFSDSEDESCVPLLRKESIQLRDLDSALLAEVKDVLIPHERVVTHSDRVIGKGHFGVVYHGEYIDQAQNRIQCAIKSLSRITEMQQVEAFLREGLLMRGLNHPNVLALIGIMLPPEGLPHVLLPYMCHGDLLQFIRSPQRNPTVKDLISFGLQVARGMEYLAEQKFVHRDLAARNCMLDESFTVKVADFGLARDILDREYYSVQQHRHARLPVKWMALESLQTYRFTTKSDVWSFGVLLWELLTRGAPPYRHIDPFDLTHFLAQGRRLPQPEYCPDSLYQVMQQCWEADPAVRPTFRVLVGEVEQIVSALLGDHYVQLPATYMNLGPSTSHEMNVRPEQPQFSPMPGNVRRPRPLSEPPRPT
Sequence of cMET (P08581 25-1390): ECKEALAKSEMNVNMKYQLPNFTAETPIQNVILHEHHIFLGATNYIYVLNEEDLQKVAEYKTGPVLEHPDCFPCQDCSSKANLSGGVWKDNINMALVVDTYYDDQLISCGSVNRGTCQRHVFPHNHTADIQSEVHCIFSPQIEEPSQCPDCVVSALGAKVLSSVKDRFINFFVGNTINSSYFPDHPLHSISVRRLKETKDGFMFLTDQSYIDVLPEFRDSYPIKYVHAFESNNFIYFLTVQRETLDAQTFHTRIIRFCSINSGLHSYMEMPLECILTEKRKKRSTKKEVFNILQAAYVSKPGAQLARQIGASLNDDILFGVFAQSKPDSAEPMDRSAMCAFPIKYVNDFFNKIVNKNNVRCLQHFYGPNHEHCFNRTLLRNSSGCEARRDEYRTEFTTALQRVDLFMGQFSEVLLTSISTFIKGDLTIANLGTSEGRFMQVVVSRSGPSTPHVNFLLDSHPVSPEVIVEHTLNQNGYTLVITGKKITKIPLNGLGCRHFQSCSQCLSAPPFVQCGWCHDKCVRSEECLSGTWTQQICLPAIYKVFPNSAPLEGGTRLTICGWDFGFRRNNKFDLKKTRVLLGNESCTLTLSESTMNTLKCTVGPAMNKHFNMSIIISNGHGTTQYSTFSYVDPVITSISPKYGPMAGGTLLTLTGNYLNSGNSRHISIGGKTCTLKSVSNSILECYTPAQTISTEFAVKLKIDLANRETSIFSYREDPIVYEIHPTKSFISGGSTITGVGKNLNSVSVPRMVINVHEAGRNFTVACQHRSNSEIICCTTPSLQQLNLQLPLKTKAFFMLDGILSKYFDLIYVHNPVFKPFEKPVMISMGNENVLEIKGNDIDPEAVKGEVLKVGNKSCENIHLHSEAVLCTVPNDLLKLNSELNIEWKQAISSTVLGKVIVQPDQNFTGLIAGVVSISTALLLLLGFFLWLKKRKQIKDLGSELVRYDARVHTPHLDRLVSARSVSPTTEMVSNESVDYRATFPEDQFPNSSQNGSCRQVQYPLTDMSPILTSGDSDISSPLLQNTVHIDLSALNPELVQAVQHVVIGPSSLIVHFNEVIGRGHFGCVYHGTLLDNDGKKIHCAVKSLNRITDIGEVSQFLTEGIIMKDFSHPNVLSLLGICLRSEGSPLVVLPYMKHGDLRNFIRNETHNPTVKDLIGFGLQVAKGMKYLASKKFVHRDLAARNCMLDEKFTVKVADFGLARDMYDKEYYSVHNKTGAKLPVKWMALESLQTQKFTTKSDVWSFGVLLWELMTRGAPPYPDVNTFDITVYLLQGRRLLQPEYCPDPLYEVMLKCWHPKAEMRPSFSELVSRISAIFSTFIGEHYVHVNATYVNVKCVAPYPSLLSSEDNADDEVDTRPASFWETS

| Compound | IC50 [1] [nM] | IC50 [2] [nM] |
| --- | --- | --- |
| CC(C)n1c(=O)[nH]c2nccc(Oc3ccc(NC(=O)c4cccc(Br)c4C(F)(F)F)cc3F)c21 [Example 27, 3-bromo-N-(3-fluoro-4-((1-isopropyl-2-oxo-2,3-dihydro-1H-imidazo[4,5-b]pyridine-7-yl)oxy)phenyl)-2-(trifluoromethyl)benzamide] | > 5000 | 500 to 5000 |
| CC(C)n1c(=O)[nH]c2nccc(Oc3ccc(NC(=O)c4cn(-c5ccccc5)nn4)cc3F)c21 [Example 41, N-(3-fluoro-4-((1-isopropyl-2-oxo-2,3-dihydro-1H-imidazo[4,5-b]pyridine-7-yl)oxy)phenyl)-1-phenyl-1H-1,2,3-triazole-4-carboxamide] | > 5000 | 500 to 5000 |
| CCn1c(=O)[nH]c2nccc(Oc3ccc(NC(=O)c4ncn(-c5ccccc5)c4C(F)(F)F)cc3F)c21 [Example 3, N-(4-((1-ethyl-2-oxo-2,3-dihydro-1H-imidazo[4,5-b]pyridine-7-yl)oxy)-3-fluorophenyl)-1-phenyl-5-(trifluoromethyl)-1H-imidazole-4-carboxamide] | > 5000 | < 50 |
| Cc1c(C(=O)Nc2ccc(Oc3ccnc4[nH]c(=O)n(C(C)C)c34)c(F)c2)cnn1-c1ccccc1 [Example 14, N-(3-fluoro-4-((1-isopropyl-2-oxo-2,3-dihydro-1H-imidazo[4,5-b]pyridine-7-yl)oxy)phenyl)-5-methyl-1-phenyl-1H-pyrazole-4-carboxamide] | 500 to 5000 | < 50 |
| Cn1c(=O)[nH]c2nccc(Oc3ccc(NC(=O)c4cnn(-c5ccccc5)c4C(F)(F)F)cc3F)c21 [Example 6, N-(3-fluoro-4-((1-methyl-2-oxo-2,3-dihydro-1H-imidazo[4,5-b]pyridine-7-yl)oxy)phenyl)-1-phenyl-5-(trifluoromethyl)-1H-pyrazole-4-carboxamide] | > 5000 | < 50 |
| O=C(Nc1ccc(Oc2ccnc3[nH]c(=O)[nH]c23)c(F)c1)c1ncn(-c2ccccc2)c1C(F)(F)F [Example 1, N-(3-fluoro-4-((2-oxo-2,3-dihydro-1H-imidazo[4,5-b]pyridine-7-yl)oxy)phenyl)-1-phenyl-5-(trifluoromethyl)-1H-imidazole-4-carboxamide] | > 5000 | < 50 |
| CCc1c(C(=O)Nc2ccc(Oc3ccnc4[nH]c(=O)[nH]c34)c(F)c2)cnn1-c1ccccc1 [Example 9, 5-ethyl-N-(3-fluoro-4-((2-oxo-2,3-dihydro-1H-imidazo[4,5-b]pyridine-7-yl)oxy)phenyl)-1-phenyl-1H-pyrazole-4-carboxamide] | > 5000 | 50 to 500 |
| CC(C)n1c(=O)[nH]c2nccc(Oc3ccc(NC(=O)c4cnn(-c5ccccc5F)c4C(F)(F)F)cc3F)c21 [Example 34, N-(3-fluoro-4-((1-isopropyl-2-oxo-2,3-dihydro-1H-imidazo[4,5-b]pyridine-7-yl)oxy)phenyl)-1-(2-fluorophenyl)-5-(trifluoromethyl)-1H-pyrazole-4-carboxamide] | 500 to 5000 | < 50 |
| CCc1c(C(=O)Nc2ccc(Oc3ccnc4[nH]c(=O)n(C5CCCC5)c34)c(F)c2)cnn1-c1ccccc1 [Example 23, N-(4-((1-cyclopentyl-2-oxo-2,3-dihydro-1H-imidazo[4,5-b]pyridine-7-yl)oxy)-3-fluorophenyl)-5-ethyl-1-phenyl-1H-pyrazole-4-carboxamide] | 500 to 5000 | 50 to 500 |
| CC(C)n1c(=O)[nH]c2nccc(Oc3ccc(NC(=O)c4cnn(C5CCCN(C)C5)c4C(F)(F)F)cc3F)c21 (stereo not shown) [Example 33, N-(3-fluoro-4-((1-isopropyl-2-oxo-2,3-dihydro-1H-imidazo[4,5-b]pyridine-7-yl)oxy)phenyl)-1-(1-methylpiperidine-3-yl)-5-(trifluoromethyl)-1H-pyrazole-4-carboxamide] | 500 to 5000 | 50 to 500 |

Results, then the compound that gave them:

| IC50 [1] [nM] | IC50 [2] [nM] | Compound |
| --- | --- | --- |
| 500 to 5000 | < 50 | O=C(Nc1ccc(Oc2ccnc3[nH]c(=O)n(C4CCOC4)c23)c(F)c1)c1cnn(-c2ccccc2)c1C(F)(F)F (stereo not shown) [Example 38, N-(3-fluoro-4-((2-oxo-1-(tetrahydrofuran-3-yl)-2,3-dihydro-1H-imidazo[4,5-b]pyridine-7-yl)oxy)phenyl)-1-phenyl-5-(trifluoromethyl)-1H-pyrazole-4-carboxamide] |
| 50 to 500 | 50 to 500 | CC(C)n1c(=O)[nH]c2nccc(Oc3ccc(NC(=O)c4cnn(C5CCOCC5)c4C(F)(F)F)cc3F)c21 [Example 29, N-(3-fluoro-4-((1-isopropyl-2-oxo-2,3-dihydro-1H-imidazo[4,5-b]pyridine-7-yl)oxy)phenyl)-1-(tetrahydro-2H-pyran-4-yl)-5-(trifluoromethyl)-1H-pyrazole-4-carboxamide] |
| 500 to 5000 | 500 to 5000 | CC(C)n1c(=O)[nH]c2nccc(Oc3ccc(NC(=O)c4ccn(-c5ccccc5)n4)cc3F)c21 [Example 40, N-(3-fluoro-4-((1-isopropyl-2-oxo-2,3-dihydro-1H-imidazo[4,5-b]pyridine-7-yl)oxy)phenyl)-1-phenyl-1H-pyrazole-3-carboxamide] |
| 500 to 5000 | < 50 | CCc1c(C(=O)Nc2ccc(Oc3ccnc4[nH]c(=O)n(C(C)C)c34)c(F)c2)cnn1-c1ccccc1 [Example 10, 5-ethyl-N-(3-fluoro-4-((1-isopropyl-2-oxo-2,3-dihydro-1H-imidazo[4,5-b]pyridine-7-yl)oxy)phenyl)-1-phenyl-1H-pyrazole-4-carboxamide] |
| 500 to 5000 | < 50 | CC(C)n1c(=O)[nH]c2nccc(Oc3ccc(NC(=O)c4cnn(-c5ccccc5Cl)c4C(F)(F)F)cc3F)c21 [Example 35, 1-(2chlorophenyl)-N-(3-fluoro-4-((1-isopropyl-2-oxo-2,3-dihydro-1H-imidazo[4,5-b]pyridine-7-yl)oxy)phenyl)-5-(trifluoromethyl)-1H-pyrazole-4-carboxamide] |
| 500 to 5000 | 50 to 500 | CC(C)n1c(=O)[nH]c2nccc(Oc3ccc(NC(=O)c4cnn(C(C)(C)C)c4C(F)(F)F)cc3F)c21 [Example 30, 1-(tert-butyl)-N-(3-fluoro-4-((1-isopropyl-2-oxo-2,3-dihydro-1H-imidazo[4,5-b]pyridine-7-yl)oxy)phenyl)-5-(trifluoromethyl)-1H-pyrazole-4-carboxamide] |
| 500 to 5000 | 50 to 500 | COc1ccccc1-n1ncc(C(=O)Nc2ccc(Oc3ccnc4[nH]c(=O)n(C(C)C)c34)c(F)c2)c1C(F)(F)F [Example 18, N-(3-fluoro-4-((1-isopropyl-2-oxo-2,3-dihydro-1H-imidazo[4,5-b]pyridine-7-yl)oxy)phenyl)-1-(2-methoxyphenyl)-5-(trifluoromethyl)-1H-pyrazole-4-carboxamide] |

From patent US20240300944A1, “NOVEL UREA DERIVATIVE COMPOUND AS RON INHIBITOR” (LG CHEM, LTD., priority 2021, published 2024)
